Reference: patent US7855290B2, “Pyridine derivatives and pyrimidine derivatives (3)” (Eisai R&D Management Co., Ltd., priority 2005, dated 2010)

Key:
Format in all cases: cell-based
[1] = system: Human gastric cancer cells (MKN-45); assay: Inhibitory activity against the proliferation of human gastric cancer cells (MKN-45); conditions: 72 h, MKN-45, 1% FBS RPMI1640, 3 days, Cell Counting Kit-8
In short: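 MKN-45 cells seeded overnight in RPMI1640 with 1% FBS, then exposed to compound for 3 days at 37° C, 5% CO2. Viability read with CCK-8 after about 1.5 hrs, absorbance at 450 nm (reference 660 nm).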

HGFR = biological target: T1, HGFR (Homo sapiens, UniProt P08581); assay: Inhibitory activity against the HGFR autophosphorylation using ELISA (MKN-45 cells); conditions: 1 hr with test substance
T1 construct: endogenous in cells; host or cells: MKN-45 human gastric cancer cells
T1 sequence (P08581 25-1390): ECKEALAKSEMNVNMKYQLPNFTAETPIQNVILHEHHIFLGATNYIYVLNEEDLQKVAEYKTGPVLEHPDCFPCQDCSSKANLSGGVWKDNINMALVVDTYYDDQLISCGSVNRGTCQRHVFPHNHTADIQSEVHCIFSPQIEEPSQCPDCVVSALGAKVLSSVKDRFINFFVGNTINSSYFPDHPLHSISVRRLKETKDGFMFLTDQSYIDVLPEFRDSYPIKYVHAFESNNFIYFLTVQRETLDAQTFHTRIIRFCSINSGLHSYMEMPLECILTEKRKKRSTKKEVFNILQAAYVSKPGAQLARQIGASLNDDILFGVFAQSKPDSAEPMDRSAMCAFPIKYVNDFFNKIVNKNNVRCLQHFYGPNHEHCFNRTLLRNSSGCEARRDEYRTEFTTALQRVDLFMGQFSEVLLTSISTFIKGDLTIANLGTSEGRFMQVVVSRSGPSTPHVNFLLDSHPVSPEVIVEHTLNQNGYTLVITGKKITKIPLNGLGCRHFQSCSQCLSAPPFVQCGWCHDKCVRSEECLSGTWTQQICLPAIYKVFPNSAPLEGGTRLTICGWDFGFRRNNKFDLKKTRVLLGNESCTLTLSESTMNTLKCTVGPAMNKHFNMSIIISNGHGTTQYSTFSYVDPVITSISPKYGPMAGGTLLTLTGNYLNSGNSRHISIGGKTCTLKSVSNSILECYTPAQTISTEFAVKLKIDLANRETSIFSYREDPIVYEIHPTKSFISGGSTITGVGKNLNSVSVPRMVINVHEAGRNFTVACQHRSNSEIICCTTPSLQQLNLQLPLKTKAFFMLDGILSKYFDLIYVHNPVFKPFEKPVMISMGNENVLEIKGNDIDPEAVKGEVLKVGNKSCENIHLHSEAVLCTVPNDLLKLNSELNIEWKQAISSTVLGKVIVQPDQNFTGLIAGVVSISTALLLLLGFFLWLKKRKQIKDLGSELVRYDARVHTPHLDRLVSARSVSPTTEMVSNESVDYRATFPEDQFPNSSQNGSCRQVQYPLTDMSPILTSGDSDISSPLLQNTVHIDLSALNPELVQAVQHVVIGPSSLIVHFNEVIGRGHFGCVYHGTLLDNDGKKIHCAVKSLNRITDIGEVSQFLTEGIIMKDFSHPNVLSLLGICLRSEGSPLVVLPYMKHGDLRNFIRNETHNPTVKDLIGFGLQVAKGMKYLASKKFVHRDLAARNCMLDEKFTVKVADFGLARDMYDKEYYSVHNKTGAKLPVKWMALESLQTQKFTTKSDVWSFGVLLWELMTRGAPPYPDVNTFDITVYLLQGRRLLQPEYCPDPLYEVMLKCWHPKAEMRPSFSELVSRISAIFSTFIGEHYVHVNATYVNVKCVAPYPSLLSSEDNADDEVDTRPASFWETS
In short: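 HGFR autophosphorylation measured by sandwich ELISA: anti-phosphotyrosine PY20 capture, anti-HGFR detection, HRP secondary, TMB read at 450 nm. Lysates came from MKN-45 cells given test substance for 1 h at 37° C in 1% FBS RPMI1640. Percent activity normalised between no-compound extract and lysis buffer alone.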

[2] = system: Human umbilical vein endothelial cells (HUVECs); assay: Inhibitory activity against the growth of vascular endothelial cells stimulated with hepatocyte growth factor; conditions: HUVEC, HGF stimulated, third day, Cell Counting Kit-8, read-out: IC50 (cell proliferation activity)
Protocol: Human umbilical vein endothelial cells (HUVECs) were isolated according to the reported method (Shin Seikagaku Jikken Koza, “Cell culturing techniques”, p 197-202), and then cultured in a 5% CO2 incubator (37° C.) using EGM-2 medium (purchased from Clonetics) until the cells reached confluency.
HUVECs were suspended in a serum-free medium for endothelial cell culture (SFM, purchased from GIBCO RBL) containing 2% FBS. The cell suspension (2×10^4 cells/ml) was put in a cell culturing 96-well plate (purchased from NUNC, Production No. 167008) at 0.1 ml/well, and then cultured in a 5% CO2 incubator (37° C.) overnight. After the culture, each well was supplied with 50 μl of the test substance diluted with a 2% FBS-containing serum-free medium for endothelial cell culture and 50 μl of HGF (purchased from R&D) diluted at a concentration of 120 ng/ml with a 2% FBS-containing serum-free medium for endothelial cell culture, followed by culturing in a 5% CO2 incubator (37° C.). On the third day after the addition of the test substance, each well was supplied with 10 μl of Cell Counting Kit-8 (purchased from DOJINDO, Production No. 343-07623), and then the plate was incubated in a 5% CO2 incubator (37° C.) for about 2 hours. After the incubation, using a Plate Reader MTP-500 (Corona Electric), the absorbance of each well was determined at a measurement wavelength of 450 nm and a reference wavelength of 660 nm. While defining the absorbance of a well supplied with HGF and no test substance as 100% cell proliferation activity and the absorbance of the well supplied with no test substance and no HGF as 0% cell proliferation activity, the cell proliferation activity ratio (%) was calculated for each cell.

IC50 [1] [nM] | IC50 (HGFR) [nM] | Compound | IC50 [2] [nM]
34 | 13 | O=C(Nc1cc(Oc2ccc(NC(=O)C3(C(=O)Nc4ccc(F)cc4)CC3)cc2F)ccn1)N1CCC(N2CCC2)CC1 [Example 11, N-{4-[(2-{[(4-Azetidin-1-ylpiperidin-1-yl)carbonyl]amino}pyridin-4-yl)oxy]-3-fluorophenyl}-N′-(4-fluorophenyl)cyclopropane-1,1-dicarboxamide] | 33
31 | 40 | CN1CCC(N(C)C(=O)Nc2cc(Oc3ccc(NC(=O)C4(C(=O)Nc5ccc(F)cc5)CC4)cc3)ccn2)CC1 [Example 12] | 23
17 | 19 | CN(C)C1CN(C2CCN(C(=O)Nc3cc(Oc4ccc(NC(=O)C5(C(=O)Nc6ccc(F)cc6)CC5)c(F)c4)ccn3)CC2)C1 [Example 14, N-[4-({2-[({4-[3-(Dimethylamino)azetidin-1-yl]piperidin-1-yl}carbonyl)amino]pyridin-4-yl}oxy)-2-fluorophenyl]-N′-(4-fluorophenyl)cyclopropane-1,1-dicarboxamide] | 23
14 | 15 | CN1CC(N2CCN(C(=O)Nc3cc(Oc4ccc(NC(=O)C5(C(=O)Nc6ccc(F)cc6)CC5)c(F)c4)ccn3)CC2)C1 [Example 17] | 17
27 | 11 | CN(C)C1CN(C2CCN(C(=O)Nc3cc(Oc4ccc(NC(=O)C5(C(=O)Nc6ccc(F)cc6)CC5)cc4F)ccn3)CC2)C1 [Example 21, N-[4-({2-[({4-[3-(Dimethylamino)azetidin-1-yl]piperidin-1-yl}carbonyl)amino]pyridin-4-yl}oxy)-3-fluorophenyl]-N′-(4-fluorophenyl)cyclopropane-1,1-dicarboxamide] | 24
